In this experiment the target is T1, recombinant human cGAS (aa147-522) (Homo sapiens, UniProt Q8N884).
T1 construct: recombinant human cGAS (aa147-522); His6-SUMO (cleaved yes); made in house; host or cells: E. coli BL21/pLys
Kind of experiment: In vitro inhibition assay of cGAS activity (ATP consumption, KinaseGlo Max). The format is biochemical. As to conditions: Table 2, read-out: cGAS Inhibition Results IC50. As to the method: Expression and Purification of Recombinant cGAS Protein: cDNA encoding full-length or amino acids […] of human cGAS was inserted into a modified pET28a vector containing an in-frame His6-SUMO tag. The E. coli strain BL21/pLys harboring the plasmid was induced with 0.5 mM IPTG at 18° C. overnight. His6-SUMO tag was removed by a SUMO protease digestion following purification of the His6-SUMO-cGAS as described previously (Sun et al, 2013, Science 339, 786).
In vitro inhibition assay of cGAS activity: A 60 μL mixture containing 20 mM Tris-Cl, pH 7.5, 5 mM MgCl2, 0.2 mg/mL BSA, 0.01 mg/mL Herring testis DNA, 6.6 μM ATP, 0.1 mM GTP, 1.5 μg/mL of recombinant human cGAS (aa147-522) and serial dilutions of a test compound in DMSO was added to a 96-well plate and incubated at 37° C. for 20 minutes. At the end of reaction, 40 μL of KinaseGlo Max (Promega) was added and chemiluminescence was measured with a luminometer. Inhibitory effect of a compound is evaluated by plotting percentage of ATP consumption against logarithm of compound concentrations. IC50 value was calculated using GraphPad Prism 8 (GraphPad Software, Inc.).
The letter codes for cGAS IC50 include: A (<2 μM); B (2-30 μM); C (>30 μM).
On the technique in general: Kinase-Glo reads ATP consumption through a luciferase reaction.

Broadly, the IC50 is the midpoint of a concentration-inhibition curve.

T1 sequence (Q8N884 147-522): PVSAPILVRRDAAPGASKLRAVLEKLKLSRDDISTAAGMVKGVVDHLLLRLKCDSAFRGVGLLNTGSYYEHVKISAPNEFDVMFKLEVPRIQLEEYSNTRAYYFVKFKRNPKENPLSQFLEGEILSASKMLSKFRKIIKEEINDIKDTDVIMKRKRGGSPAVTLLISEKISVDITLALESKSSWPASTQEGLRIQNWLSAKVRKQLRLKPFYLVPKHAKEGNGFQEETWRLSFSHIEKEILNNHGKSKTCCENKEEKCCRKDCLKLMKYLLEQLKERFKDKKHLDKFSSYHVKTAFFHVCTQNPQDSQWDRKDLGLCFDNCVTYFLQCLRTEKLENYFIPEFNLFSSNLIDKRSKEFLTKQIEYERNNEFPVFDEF

For the compound `O=C(O)C1(O)CCCN(c2cc(-n3ccnc3)c3ccc(Cl)c(Cl)c3n2)C1` (centres unmarked) [I-124], the 50% inhibitory concentration (IC50) was below 2000 nM.

For `O=C(CO)NC1(C(=O)O)CCCN(c2cc(-n3ccnc3)c3ccc(Cl)c(Cl)c3n2)C1` (centres unmarked) [I-125, 1-(7,8-dichloro-4-(1H-imidazol-1-yl)quinolin-2-yl)-3-(2-hydroxyacetamido) piperidine-3-carboxylic acid], the IC50 is below 2000 nM.

As for `COC(=O)C1CCCN(c2cc(-n3ccnc3)c3ccc(Cl)cc3n2)C1` (centres unmarked) [I-126], the IC50 was 2000 to 30000 nM.

For `O=C(O)C1CCN(c2cc(-n3ccnc3)c3ccc(Cl)cc3n2)CC1` [I-127], the IC50 was in the range of 2000 to 30000 nM.

Turning to `O=C(O)[C@@H]1CCCCN1c1cc(-c2cn[nH]c2)c2ccc(Cl)c(Cl)c2n1` [I-128], the IC50 fell in the range of 2000 to 30000 nM.

`O=C(O)[C@@H]1CN(c2cc(-n3ccnc3)c3ccc(Cl)cc3n2)CC[C@H]1O` [I-130]: the half-maximal inhibitory concentration (IC50) lay within 2000 to 30000 nM.

For `COC(=O)C1CCN(c2cc(-n3ccnc3)c3ccc(Cl)cc3n2)CC1` [I-131], the half-maximal inhibitory concentration (IC50) was 2000 to 30000 nM.

In the case of `OC1CCN(c2cc(-n3ccnc3)c3ccc(Cl)c(Cl)c3n2)CC1` [I-132], the IC50 lay within 2000 to 30000 nM.

`O[C@H]1CCCN(c2cc(-n3ccnc3)c3ccc(Cl)c(Cl)c3n2)C1` [I-133]: the half-inhibitory concentration (IC50) is below 2000 nM.

As for `O[C@@H]1CCCN(c2cc(-n3ccnc3)c3ccc(Cl)c(Cl)c3n2)C1` [I-134], the IC50 fell in the range of 2000 to 30000 nM.

For the compound `O=C(O)C1CC(O)CN(c2cc(-n3ccnc3)c3ccc(Cl)cc3n2)C1` (centres unmarked) [I-135], the 50% inhibitory concentration (IC50) is above 30000 nM.

For `O=C(O)[C@@H]1CN(c2cc(-n3ccnc3)c3ccc(Cl)cc3n2)CC[C@@H]1O` [I-136], the IC50 lay within 2000 to 30000 nM.

For `O=C(NO)[C@@H]1CCCN(c2cc(-n3ccnc3)c3ccc(Cl)cc3n2)C1` [I-137, (R)-1-(7-chloro-4-(1H-imidazol-1-yl)quinolin-2-yl)-N-hydroxypiperidine-3-carboxamide], the half-inhibitory concentration (IC50) lay within 2000 to 30000 nM.

For `OC[C@@H]1CCCN1c1cc(-c2cn[nH]c2)c2ccc(Cl)c(Cl)c2n1` [I-138], the half-maximal inhibitory concentration (IC50) was below 2000 nM.

Turning to `OCC1CCCN(c2cc(-n3ccnc3)c3ccc(Cl)cc3n2)C1` (centres unmarked) [I-140], the IC50 is 2000 to 30000 nM.

Turning to `OC[C@H]1CCCN1c1cc(-n2ccnc2)c2ccc(Cl)c(Cl)c2n1` [I-141], the IC50 is below 2000 nM.

As for `OC[C@@H]1C[C@@H](O)CN1c1cc(-n2ccnc2)c2ccc(Cl)c(Cl)c2n1` [I-142], the IC50 is below 2000 nM.

Regarding `C[C@@]1(CO)CCCN1c1cc(-n2ccnc2)c2ccc(Cl)c(Cl)c2n1` [I-143], the IC50 is below 2000 nM.

As for `O[C@H]1CCN(c2cc(-n3ccnc3)c3ccc(Cl)c(Cl)c3n2)C1` [I-144], the half-inhibitory concentration (IC50) is below 2000 nM.

With `O[C@@H]1CCN(c2cc(-n3ccnc3)c3ccc(Cl)c(Cl)c3n2)C1` [I-145], the IC50 is below 2000 nM.

For `COC[C@@H]1CCCN1c1cc(-n2ccnc2)c2ccc(Cl)c(Cl)c2n1` [I-147], the 50% inhibitory concentration (IC50) is below 2000 nM.

Take `NS(=O)(=O)CC1CCCN1c1cc(-n2ccnc2)c2ccc(Cl)c(Cl)c2n1` (centres unmarked) [I-148]: the IC50 is below 2000 nM.

In the case of `NS(=O)(=O)C1CCN(c2cc(-n3ccnc3)c3ccc(Cl)c(Cl)c3n2)C1` (centres unmarked) [I-150], the concentration for half-maximal inhibition (IC50) was below 2000 nM.

Regarding `CS(=O)(=O)NC[C@@H]1CCCN1c1cc(-n2ccnc2)c2ccc(Cl)c(Cl)c2n1` [I-151], the IC50 was below 2000 nM.

Take `CC(C)(C)OC(=O)NC[C@@H]1CCCN1c1cc(-n2ccnc2)c2ccc(Cl)c(Cl)c2n1` [I-152]: the IC50 fell in the range of 2000 to 30000 nM.

Consider `NC[C@@H]1CCCN1c1cc(-n2ccnc2)c2ccc(Cl)c(Cl)c2n1` [I-153, (S)-(1-(7,8-dichloro-4-(1H-imidazol-1-yl)quinolin-2-yl)pyrrolidin-2-yl)methanamine], for which the 50% inhibitory concentration (IC50) lay within 2000 to 30000 nM.

Consider `O=C(CO)NC[C@@H]1CCCN1c1cc(-n2ccnc2)c2ccc(Cl)c(Cl)c2n1` [I-154, (S)—N-((1-(7,8-dichloro-4-(1H-imidazol-1-yl)quinolin-2-yl)pyrrolidin-2-yl)methyl)-2-hydroxyacetamide], for which the IC50 is below 2000 nM.

Consider `Clc1ccc2c(-n3ccnc3)cc(N3CCC(c4nn[nH]n4)C3)nc2c1` (centres unmarked) [I-155], for which the IC50 was 2000 to 30000 nM.

Turning to `O=C(O)CNC(=O)C[C@@H]1CCCN1c1cc(-n2ccnc2)c2ccc(Cl)c(Cl)c2n1` [I-156, (S)-(2-(1-(7,8-dichloro-4-(1H-imidazol-1-yl)quinolin-2-yl)pyrrolidin-2-yl)acetyl)glycine], the IC50 is below 2000 nM.

`O=S(=O)(O)CNc1cc(-n2ccnc2)c2ccc(Cl)c(Cl)c2n1` [I-157]: the IC50 was 2000 to 30000 nM.

Take `O=S(=O)(O)CCNc1cc(-n2ccnc2)c2ccc(Cl)c(Cl)c2n1` [I-158]: the concentration for half-maximal inhibition (IC50) was below 2000 nM.

In the case of `CN(CCS(=O)(=O)O)c1cc(-n2ccnc2)c2ccc(Cl)c(Cl)c2n1` [I-159], the concentration for half-maximal inhibition (IC50) is below 2000 nM.

Turning to `O=S(=O)(O)CCCNc1cc(-n2ccnc2)c2ccc(Cl)c(Cl)c2n1` [I-160], the IC50 was below 2000 nM.

Regarding `CN(CCS(N)(=O)=O)c1ccc2ccc(Cl)c(Cl)c2n1` [I-161], the half-inhibitory concentration (IC50) was above 30000 nM.

On to `O=S(=O)(O)CC(Cc1ccccc1)Nc1cc(-n2ccnc2)c2ccc(Cl)c(Cl)c2n1` (centres unmarked) [I-162, 2-((7,8-dichloro-4-(1H-imidazol-1-yl)quinolin-2-yl)amino)-3-phenylpropane-1-sulfonic acid], for which the IC50 was above 30000 nM.

For `CC(C)[C@H](CS(=O)(=O)O)Nc1cc(-n2ccnc2)c2ccc(Cl)cc2n1` [I-163], the IC50 was above 30000 nM.

`O=S(=O)(O)CCN(Cc1ccccc1)c1cc(-n2ccnc2)c2ccc(Cl)c(Cl)c2n1` [I-164, 2-(benzyl(7,8-dichloro-4-(1H-imidazol-1-yl)quinolin-2-yl)amino)ethane-1-sulfonic acid]: the 50% inhibitory concentration (IC50) was in the range of 2000 to 30000 nM.

Take `CC(C)N(CCS(=O)(=O)O)c1cc(-n2ccnc2)c2ccc(Cl)c(Cl)c2n1` [I-165]: the IC50 was below 2000 nM.

On to `O=C(O)CNc1cc(-n2ccnc2)c2ccc(Cl)cc2n1` [I-166, (7-chloro-4-(1H-imidazol-1-yl)quinolin-2-yl)glycine], for which the 50% inhibitory concentration (IC50) is 2000 to 30000 nM.

For `CN(CC(=O)O)c1cc(-n2ccnc2)c2ccc(Cl)cc2n1` [I-167], the IC50 was below 2000 nM.

Regarding `O=C(O)[C@H](CO)Nc1cc(-n2ccnc2)c2ccc(Cl)c(Cl)c2n1` [I-168, (7,8-Dichloro-4-(1H-imidazol-1-yl)quinolin-2-yl)serine], the IC50 is below 2000 nM.

With `O=C(O)C(Cc1ccc(O)cc1)Nc1cc(-n2ccnc2)c2ccc(Cl)c(Cl)c2n1` (centres unmarked) [I-169], the IC50 was below 2000 nM.

Consider `CS(=O)(=O)CCC(Nc1cc(-n2ccnc2)c2ccc(Cl)c(Cl)c2n1)C(=O)O` (centres unmarked) [I-170, 2-((7,8-Dichloro-4-(1H-imidazol-1-yl)quinolin-2-yl)amino)-4-(methylsulfonyl)butanoic acid], for which the concentration for half-maximal inhibition (IC50) was below 2000 nM.

Take `O=C(O)CNc1cc(Cl)c2ccc(Cl)c(Cl)c2n1` [I-171]: the IC50 was above 30000 nM.

Regarding `O=C(O)CN(CCN1CCOCC1)c1cc(-n2ccnc2)c2ccc(Cl)c(Cl)c2n1` [I-172, N-(7,8-dichloro-4-(1H-imidazol-1-yl)quinoline-2-yl)-N-(2-morpholinoethyl)glycine], the concentration for half-maximal inhibition (IC50) fell in the range of 2000 to 30000 nM.

For `O=C(O)CN(CCCO)c1cc(-n2ccnc2)c2ccc(Cl)c(Cl)c2n1` [I-173], the half-maximal inhibitory concentration (IC50) was in the range of 2000 to 30000 nM.

Consider `O=C(O)CN(CC(=O)O)c1cc(-n2ccnc2)c2ccc(Cl)c(Cl)c2n1` [I-174], for which the half-inhibitory concentration (IC50) is below 2000 nM.

Take `O=C(O)CCN(CC(=O)O)c1cc(-n2ccnc2)c2ccc(Cl)c(Cl)c2n1` [I-175]: the IC50 was below 2000 nM.

For the compound `O=C(O)CN(Cc1ccncc1)c1cc(-n2ccnc2)c2ccc(Cl)c(Cl)c2n1` [I-176], the half-maximal inhibitory concentration (IC50) lay in the range of 2000 to 30000 nM.

With `O=C(O)CNc1cc(-c2cn[nH]c2)c2ccc(Cl)c(Cl)c2n1` [I-177, (7,8-dichloro-4-(1H-pyrazol-4-yl)quinolin-2-yl)glycine], the half-maximal inhibitory concentration (IC50) lay within 2000 to 30000 nM.

In the case of `CN(CC(N)=O)c1cc(-n2ccnc2)c2ccc(Cl)c(Cl)c2n1` [I-179], the half-maximal inhibitory concentration (IC50) fell in the range of 2000 to 30000 nM.

Regarding `C[C@@H](Nc1cc(-c2cn[nH]c2)c2ccc(Cl)c(Cl)c2n1)C(=O)O` [I-180], the IC50 was 2000 to 30000 nM.

With `C[C@H](Nc1cc(-c2cn[nH]c2)c2ccc(Cl)c(Cl)c2n1)C(=O)O` [I-181], the IC50 is above 30000 nM.

For the compound `O=C(O)CCNc1cc(-n2ccnc2)c2ccc(Cl)cc2n1` [I-182], the IC50 was in the range of 2000 to 30000 nM.

For `CN(CCC(=O)O)c1cc(-n2ccnc2)c2ccc(Cl)c(Cl)c2n1` [I-183], the concentration for half-maximal inhibition (IC50) is below 2000 nM.

For the compound `CN(CCC(=O)O)c1cc(-c2cn[nH]c2)c2ccc(Cl)c(Cl)c2n1` [I-184], the IC50 was below 2000 nM.

Take `C[C@H](CC(=O)O)Nc1cc(-n2ccnc2)c2ccc(Cl)c(Cl)c2n1` [I-185]: the 50% inhibitory concentration (IC50) fell in the range of 2000 to 30000 nM.

Turning to `C[C@@H](CC(=O)O)Nc1cc(-n2ccnc2)c2ccc(Cl)c(Cl)c2n1` [I-186], the half-maximal inhibitory concentration (IC50) is below 2000 nM.

With `CC(C)[C@@H](CC(=O)O)Nc1cc(-n2ccnc2)c2ccc(Cl)c(Cl)c2n1` [I-187], the IC50 was in the range of 2000 to 30000 nM.

For `CC(C)[C@H](CC(=O)O)Nc1cc(-n2ccnc2)c2ccc(Cl)c(Cl)c2n1` [I-188], the IC50 was in the range of 2000 to 30000 nM.

In the case of `O=C(O)C[C@@H](Nc1cc(-n2ccnc2)c2ccc(Cl)c(Cl)c2n1)c1ccccc1` [I-189], the IC50 fell in the range of 2000 to 30000 nM.

`NC(=O)CCNc1cc(-c2cn[nH]c2)c2ccc(Cl)c(Cl)c2n1` [I-190]: the IC50 is below 2000 nM.

Source of the values: US11873291B2, “Quinoline cGAS antagonist compounds” (ImmuneSensor Therapeutics, Inc., priority 2020, dated 2024).
